Where two headings read alike, the source gives them in different places. Square brackets hold non-standard residues; d marks the D form. Peptide text beside a SMILES is read from it.
Legend:
recombinant ETA receptor [1] = target: T1, recombinant ETA receptor (Homo sapiens, UniProt P25101); experiment: cell-based
[2] = target: T2, ET receptors in human primary PASMC (Homo sapiens, UniProt P25101); experiment: cell-based; conditions: ET-1 EC50–EC70
recombinant ETA receptor [3] = target: T1, recombinant ETA receptor; conditions: read-out: Kb CHO-ETA; 120 min antagonist pre-incubation; ET-1 EC50–EC70; from IC50 via Cheng-Prusoff; geometric mean n = 3–8
recombinant ETB receptor [4] = target: T3, recombinant ETB receptor (Homo sapiens, UniProt P24530); conditions: read-out: Kb CHO-ETB; 120 min antagonist pre-incubation; ET-1 EC50–EC70; from IC50 via Cheng-Prusoff; geometric mean n = 3–8
T3 sequence (P24530 27-442): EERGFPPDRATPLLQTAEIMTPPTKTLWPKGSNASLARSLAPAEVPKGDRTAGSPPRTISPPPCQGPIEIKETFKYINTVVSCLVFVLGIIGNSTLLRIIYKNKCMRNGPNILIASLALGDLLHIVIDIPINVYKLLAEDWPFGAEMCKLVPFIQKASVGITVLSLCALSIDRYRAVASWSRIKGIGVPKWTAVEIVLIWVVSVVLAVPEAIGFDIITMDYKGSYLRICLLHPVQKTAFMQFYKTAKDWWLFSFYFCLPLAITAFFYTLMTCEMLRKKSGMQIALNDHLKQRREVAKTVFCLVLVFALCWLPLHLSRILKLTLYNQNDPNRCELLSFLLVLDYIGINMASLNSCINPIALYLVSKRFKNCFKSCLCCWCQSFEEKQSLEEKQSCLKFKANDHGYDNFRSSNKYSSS

[5] = target: T2, ET receptors in human primary PASMC; conditions: for Kb: ET-1 EC50–EC70
[6] = target: T2, ET receptors in human primary PASMC
[7] = target: T2, ET receptors in human primary PASMC; remark: listed apart in the source
[8] = target: T2, ET receptors in human primary PASMC; conditions: for proportion of receptors dissociated from within the first 30 seconds: estimated assuming 1:1 correlation between signal and receptor occupancy; for ROt1/2: estimated from first calcium response phase at 1 µM ET-1; for proportion of ET-1-induced signal with surmountable mode of antagonism: first calcium response phase, peak, 1 µM ET-1
[9] = target: T2, ET receptors in human primary PASMC; experiment: cell-based; conditions: 120 min pre-incubation
[10] = target: T2, ET receptors in human primary PASMC; experiment: cell-based; conditions: 120 min pre-incubation; remark: listed apart in the source
P2Y12 = conditions: cited from earlier work
angiotensin II receptor = conditions: cited from earlier work
recombinant ETB receptor [11] = target: T3, recombinant ETB receptor; experiment: cell-based
[12] = Kb 10 min, 10 min antagonist pre-incubation, geometric mean n = 6
[13] = Kb PASMC, Table 1, 120 min antagonist pre-incubation, from IC50 via Cheng-Prusoff, geometric mean n = 3–8
[14] = Kb 120 min, 120 min antagonist pre-incubation (steady state), geometric mean n = 6
[15] = Kb IP1 accumulation, 20 min ET-1 stimulation, IC50 at […] ET-1 via Cheng-Prusoff, n = 4
[16] = Schild Kb IP1 accumulation, 90 min ET-1 stimulation, Gaddum/Schild regression, n = 3
[17] = Kb1 (first calcium response phase), peak fluorescence, IC50 at 8 nM ET-1 via Cheng-Prusoff
[18] = Kb2 (second sustained calcium response phase), AUC 3–23 min, IC50 at […] ET-1 via Cheng-Prusoff

T2 sequence (P25101 21-427): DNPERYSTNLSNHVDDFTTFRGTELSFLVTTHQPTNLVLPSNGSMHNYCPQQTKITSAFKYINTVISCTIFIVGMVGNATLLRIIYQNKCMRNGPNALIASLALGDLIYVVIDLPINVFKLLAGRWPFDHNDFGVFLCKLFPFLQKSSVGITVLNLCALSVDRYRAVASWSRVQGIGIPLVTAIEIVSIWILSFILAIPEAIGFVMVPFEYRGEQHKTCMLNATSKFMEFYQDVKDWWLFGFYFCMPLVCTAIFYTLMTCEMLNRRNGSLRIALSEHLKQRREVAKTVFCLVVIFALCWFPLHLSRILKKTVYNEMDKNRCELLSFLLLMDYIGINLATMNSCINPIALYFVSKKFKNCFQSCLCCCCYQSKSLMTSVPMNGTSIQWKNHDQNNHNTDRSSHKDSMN
T1 sequence (P25101 21-427): as above

| SMILES | Kb (recombinant ETA receptor [1]) [nM] | Kb [2, 12] [nM] | Kb [2, 13] [nM] | mode of antagonism, IP1 accumulation ([7]; 20 min ET-1 stimulation) | mode of antagonism, IP1 accumulation ([7]; 90 min ET-1 stimulation) | proportion of ET-1-induced signal with surmountable mode of antagonism [8] | Kb [2, 14] [nM] | Kb (recombinant ETB receptor [11]) [nM] | other results |
| --- | --- | --- | --- | --- | --- | --- | --- | --- | --- |
| CC(C)C[C@@H]1NC(=O)[C@@H](C(C)C)NC(=O)[C@@H]2CCCN2C(=O)[C@@H](CC(=O)O)NC(=O)[C@@H](Cc2c[nH]c3ccccc23)NC1=O [BQ-123] (cyclo(L[dW][dD]P[dV])) | 9.4 | 0.61 | 0.62 | – | – | – | – | – | – |
| CCCC[C@@H](NC(=O)[C@@H](Cc1cn(C(=O)OC)c2ccccc12)NC(=O)[C@H](CC(C)(C)C)NC(=O)N1[C@H](C)CCC[C@@H]1C)C(=O)O [BQ-788] | – | – | – | – | – | – | – | – | Kb (recombinant ETA receptor [3]): 277 nM; Kb (recombinant ETB receptor [4]): 0.09 nM; Kb ratio ([5]; Kb 10 min versus 120 min pre-incubation (fold increase in potency)): 1.0; Kb ([5]; read-out: Kb 10 min, 10 min antagonist pre-incubation, geometric mean n = 6): 121 nM; Kb ([5]; read-out: Kb 120 min, 120 min antagonist pre-incubation (steady state), geometric mean n = 6): 117 nM; Kb ([5]; read-out: Kb PASMC, Table 1, 120 min antagonist pre-incubation, from IC50 via Cheng-Prusoff, geometric mean n = 3–8): 117 nM |
| COC(=O)[C@H](c1ccccc1Cl)N1CCc2sccc2C1 [clopidogrel] | – | – | – | – | – | – | – | – | binding mode (P2Y12): irreversible binding |
| CCCCc1nc(Cl)c(CO)n1Cc1ccc(-c2ccccc2-c2nn[nH]n2)cc1 [losartan] | – | – | – | – | – | – | – | – | shorter ROt1/2 compared to candesartan and olmesartan (angiotensin II receptor): 15–25 fold |
| Cc1cc2c(cc1CC(=O)c1sccc1S(=O)(=O)Nc1onc(C)c1Cl)OCO2 [sitaxentan] | 20 | 2.9 | 4.2 | – | – | – | 4.2 | 4470 | – |
| COc1ccccc1Oc1c(NS(=O)(=O)c2ccc(C(C)C)cn2)nc(-c2ccnc(-c3nnn[nH]3)c2)nc1OCCO [tezosentan] | 0.26 | 0.042 | 0.01 | – | – | – | 0.01 | 0.5 | – |
| COc1nc(C)cnc1NS(=O)(=O)c1cccnc1-c1ccc(-c2nnco2)cc1 [zibotentan] | – | – | – | – | – | – | – | 4390 | – |

Further lines, with some results ahead:

| Kb (recombinant ETA receptor [1]) [nM] | Kb [2, 12] [nM] | Kb [2, 13] [nM] | mode of antagonism, IP1 accumulation ([7]; 20 min ET-1 stimulation) | mode of antagonism, IP1 accumulation ([7]; 90 min ET-1 stimulation) | proportion of ET-1-induced signal with surmountable mode of antagonism [8] | Kb [2, 14] [nM] | Kb (recombinant ETB receptor [11]) [nM] | SMILES | other results |
| --- | --- | --- | --- | --- | --- | --- | --- | --- | --- |
| – | 0.11 | – | surmountable | surmountable antagonism | ~30% | 0.12 | – | COC(c1ccccc1)(c1ccccc1)[C@H](Oc1nc(C)cc(C)n1)C(=O)O [ambrisentan] | receptor occupancy half-life (ROt1/2) [6]: 0.667 min; proportion of receptors dissociated from within the first 30 seconds [8]: ~30%; ROt1/2 [8]: < 1 min; Kb [9, 15]: 1.1 nM; Kb [9, 16]: 1.6 nM; Ki [10, 17]: 0.27 nM; Ki [10, 18]: 0.14 nM |
| – | – | – | surmountable | surmountable antagonism | ~50% | – | – | COc1ccccc1Oc1c(NS(=O)(=O)c2ccc(C(C)(C)C)cc2)nc(-c2ncccn2)nc1OCCO [bosentan] | proportion of receptors dissociated from within the first 30 seconds [8]: ~50%; ROt1/2 [8]: < 1 min |
| – | 0.86 | – | insurmountable | surmountable antagonism | no surmountable behavior | 0.14 | – | CCCNS(=O)(=O)Nc1ncnc(OCCOc2ncc(Br)cn2)c1-c1ccc(Br)cc1 [macitentan] | increase in ROt1/2 compared to ambrisentan and bosentan [6]: ~15 fold; receptor occupancy half-life (ROt1/2) [6]: 17 min; loss in potency after washout ([6]; over 60 min after washout): 13 fold; mode of antagonism, IP1 accumulation ([7]; 20 min ET-1 stimulation, listed as Macitentan): insurmountable antagonism; mode of antagonism, second sustained phase of calcium elevation ([8]; AUC 3–23 min after ET-1): insurmountable; Kb [9, 15]: 0.74 nM; Kb [9, 16]: 1.4 nM; Ki [10, 17]: 0.17 nM; Ki [10, 18]: 0.093 nM |

Reference: PMC3471877 (PLoS ONE, 2012)
